Measurements: US20160046582A1 (Teva Pharmaceutical Industries Ltd., priority 2014, published 2016)
Where two headings read alike, the source gives them in different places.

Legend:
[1] = In vitro AMES test (CRL studies No. 962723 and No. 963892); format: cell-based; conditions: MCQ: pre-incubation method, CRL study No. 962723, MCQME: CRL study No. 963892
[2] = In vivo MN (Covance study No. 8246631)
[3] = system: acute experimental autoimmune encephalomyelitis (aEAE) model; conditions: in vivo; cited from earlier work
[4] = system: active MRI lesions in relapsing MS; conditions: cited from earlier work
[5] = prior art examples; cited from earlier work
[6] = Chemical stability observed on handling or purification; format: physicochemical; conditions: most organic solvents and aqueous acidic medium
Hygroscopicity = format: physicochemical; conditions: exposure to air
[7] = Particle size distribution by Malvern laser diffraction (Mastersizer S); format: physicochemical; conditions: for PSD by Malvern D(0.9) / PSD by Malvern d(0.1) / PSD by Malvern d(0.5): modified pilot scale, 2.5 kg batch
Procedure: The particle size distributions were measured by Malvern Laser Diffraction, using the Mastersizer S model. Laser diffraction relies on the fact that diffraction angle of light is inversely proportional to particle size. Properties of particles are measured and interpreted as measurements of a sphere (a sphere being the only shape that can be described by one unique number). In addition, laser diffraction calculates a particle size distribution based around volume terms, thus eliminating particle count from the determination of particle size. The Mastersizer S model measures particles using a single technique and a single range setting.
D(0.1) is the particle size, in microns, below which 10% by volume distribution of the population is found. D(0.5) is the particle size, in microns, below which 50% by volume distribution of the population is found. D(0.9) is the particle size, in microns, below which 90% by volume distribution of the population is found.

Bulk density of powder = format: physicochemical; conditions: production scale
Procedure: • 1. Mix powder; • 2. Tare a 50 ml empty cylinder on a 0.01 g sensitivity balance; • 3. Transfer the powder, without compacting, to the cylinder being held at approximately a 45 degree angle to achieve an untapped apparent volume of 40 to 50 ml. • 4. Bring the cylinder containing the sample to a vertical position by a sharp move in order to level the volume for reading. • 5. Read the apparent volume (Va) to the nearest graduated unit; • 6. Weigh the cylinder with sample (the balance gives sample weight M); • 7. Calculate bulk density in g/ml according to the following equation: BD=M/Va; • 8. Perform steps 1-7 again and report the average data of duplicates.

[8] = Tapped density of powder (Quantachrome Dual Autotap, 1250 taps); format: physicochemical; conditions: production scale
Text: • 1. Put the same cylinder used to calculate Bulk Density in a Quantachrome Dual Autotap instrument; • 2. Perform 1250 taps; • 3. Read the tapped volume (Vf) to the nearest graduated unit; • 4. Calculate the tapped density in g/ml according to the following equation: TD=M/Vf; • 5. Perform steps 1-4 again and report the average data of duplicates.

[9] = Solubility in water (description of drug substance); format: physicochemical
Text: The solubility terms are defined below, in accordance with the United States Pharmacopoeia XXV.

[10] = cited from earlier work
[11] = cited from earlier work; remark: listed apart in the source
[12] = laboratory scale recrystallization, 25 g
[13] = laboratory scale, 25 g batch, prior art
[14] = starting material of the recrystallization

Structure (SMILES): Cn1c(=O)cc(O)c2c(Cl)cccc21 [MCQ, 5-chloro-4-hydroxy-1-methylquinolin-2(1H)-one]
- AMES test genotoxic activity [1]: AMES data negative in the pre-incubation

Structure (SMILES): COC(=O)c1c(O)c2c(Cl)cccc2n(C)c1=O [MCQME, methyl 5-chloro-4-hydroxy-1-methyl-2-oxo-1,2-dihydroquinoline-3-carboxylate]
- in vivo MN [2]: negative in the in vivo MN
- AMES test genotoxic activity [1]: Weak genotoxic activity in the in vitro

Structure (SMILES): CCN(C(=O)c1c(O)c2c(Cl)cccc2n(C)c1=O)c1ccccc1 [Laquinimod, N-ethyl-N-phenyl-1,2,-dihydro-4-hydroxy-5-chloro-1-methyl-2-oxoquinoline-3-carboxamide]
- efficacy in aEAE model [3]: effective
- development of active MRI lesions [4]: can reduce development of active MRI lesions

Structure (SMILES): CCN(C(=O)c1c([O-])c2c(Cl)cccc2n(C)c1=O)c1ccccc1.[Na+] [Example 13 of U.S. Pat. No. 7,884,208]
- Tapped Density (in words) [5]: high

Structure (SMILES): CCN(C(=O)c1c(O)c2c(O)cccc2n(C)c1=O)c1ccccc1 [Batch 5-HLAQ, N-ethyl-4,5-dihydroxy-1-methyl-2-oxo-N-phenyl-1,2-dihydroquinoline-3-carboxamide]
- stability in solvents [6]: unstable

Structure (SMILES): CCN(C(=O)c1c(O)c2c(N(C)C[C@H](O)[C@@H](O)[C@H](O)[C@H](O)CO)cccc2n(C)c1=O)c1ccccc1 (stereo in doubt) [MEG-LAQ, N-ethyl-4-hydroxy-1-methyl-5-(methyl(2,3,4,5,6-pentahydroxyhexyl)amino)-2-oxo-N-phenyl-1,2-dihydroquinoline-3-carboxamide]
- hygroscopicity (Hygroscopicity): high hygroscopicity

Structure (SMILES): CCN(C(=O)c1c([O-])c2c(Cl)cccc2n(C)c1=O)c1ccccc1.[Na+] [Batch D]
- PSD D(0.5) ([7]; production scale): 14.7 μm
- PSD D(0.9) ([7]; production scale): 33.6 μm
- Bulk Density (Bulk density of powder): 0.288 g/mL

Structure (SMILES): CCN(C(=O)c1c([O-])c2c(Cl)cccc2n(C)c1=O)c1ccccc1.[Na+] [Batch C]
- PSD D(0.1) ([7]; production scale): 4.1 μm
- PSD D(0.5) ([7]; production scale): 14.0 μm
- PSD D(0.9) ([7]; production scale): 32.0 μm
- Bulk Density (Bulk density of powder): 0.308 g/mL
- Tapped Density [8]: 0.609 g/mL

Structure (SMILES): CCN(C(=O)c1c([O-])c2c(Cl)cccc2n(C)c1=O)c1ccccc1.[Na+] [Batch E]
- PSD D(0.1) ([7]; production scale): 2.5 μm
- PSD D(0.5) ([7]; production scale): 9.5 μm
- PSD D(0.9) ([7]; production scale): 21.0 μm
- Bulk Density (Bulk density of powder): 0.245 g/mL
- Tapped Density [8]: 0.460 g/mL

Structure (SMILES): CCN(C(=O)c1c([O-])c2c(Cl)cccc2n(C)c1=O)c1ccccc1.[Na+] [Laquinimod sodium]
- solubility in water [9]: freely soluble
- oral bioavailability [10]: high

Structure (SMILES): CCN(C(=O)c1c([O-])c2c(Cl)cccc2n(C)c1=O)c1ccccc1.[Na+] [Pilot Scale Batch B]
- PSD by Malvern D(0.9) [7]: 33.9 um
- PSD by Malvern d(0.1) [7]: 4.1 um
- PSD by Malvern d(0.5) [7]: 13.5 um

Structure (SMILES): CCN(C(=O)c1c([O-])c2c(Cl)cccc2n(C)c1=O)c1ccccc1.[Na+] [Laboratory Scale Batch B]
- PSD D(0.1) [7, 12]: 2.6 μm
- PSD D(0.5) [7, 12]: 12.4 μm
- PSD D(0.9) [7, 12]: 34.3 μm

Structure (SMILES): CCN(C(=O)c1c([O-])c2c(Cl)cccc2n(C)c1=O)c1ccccc1.[Na+] [Laboratory Scale Batch A]
- PSD D(0.1) [7, 12]: 2.3 μm
- PSD D(0.5) [7, 12]: 10.8 μm
- PSD D(0.9) [7, 12]: 32.7 μm

Structure (SMILES): CCN(C(=O)c1c([O-])c2c(Cl)cccc2n(C)c1=O)c1ccccc1.[Na+] [Example 15 from U.S. Pat. No. 7,884,208]
- PSD by Malvern D(0.9) [11, 13]: 51.8 um
- PSD by Malvern d(0.1) [11, 13]: 6.1 um
- PSD by Malvern d(0.5) [11, 13]: 21.2 um

Structure (SMILES): CCN(C(=O)c1c([O-])c2c(Cl)cccc2n(C)c1=O)c1ccccc1.[Na+] [Example 14 of U.S. Pat. No. 7,884,208]
- size of 10% or more of the total amount by volume of the particles ([11]; prior art example): less than 5 microns
- Tapped Density (in words) [5]: undesired

Structure (SMILES): CCN(C(=O)c1c([O-])c2c(Cl)cccc2n(C)c1=O)c1ccccc1.[Na+] [Pilot Scale Batch A]
- PSD by Malvern D(0.9) [7]: 33.8 um
- PSD by Malvern d(0.1) [7]: 3.3 um
- PSD by Malvern d(0.5) [7]: 12.9 um

Structure (SMILES): CCN(C(=O)c1c([O-])c2c(Cl)cccc2n(C)c1=O)c1ccccc1.[Na+] [crude laquinimod sodium]
- particle size d(0.1) [7, 14]: 1-2 μ
- particle size d(0.5) [7, 14]: 6-11 μ
- particle size d(0.9) [7, 14]: 20-35 μ
